Laboratory results: patent US20260209152A1, “Substituted Hydroxystilbene Compounds and Derivatives, Synthesis and Uses Thereof” (Kynan Duke IP, LLC, priority 2019, published 2026)
Several values for one entry are separate records, joined by “and”; a condition that tells them apart may be missing. Equal entries are not always repeated. Entries after “also recorded” stand apart in the source; their conditions may differ. Where two headings read alike, the source gives them in different places.

Key:
[1] = test system: Kidney CRL-1611; experiment: CellTiter Glo cell viability assay; type: cell-based; details: Homo sapiens, 72 h
Description: (§1) 1.7*10^3 cells/well were seeded in quadruplicates in 96-well plate after plating. Drugs were added at 5 μM and 2-fold dilutions over 18 concentrations (0.000038146-5 […] range) to generate a dose-response curve. Cell growth was assessed on day 1, 3 and 5 after drug treatments using the CellTiter Glo Luminescence Cell Viability Assay (Promega) according to manufacturer's protocol. Thermo Scientific Varioskan LUX Multimode Microplate instrument was used for plate reading. Data are expressed as mean luminescence (arbitrary units) ±S.D.
(§2) Cell Viability Assays were employed to determine the concentration of Compound 1 (KYN-001) and analogues where the response is reduced by half. For each treatment of cancer cells, 1, 2, 5, 10 and 20 μM solutions of compounds were applied. GraphPad Prism 7 software was used to fit dose response curves. Relative Luminescence Units were plotted against the log values of the doses used and the nonlinear regression model was used for data analysis.
(§3) The protocol for cell proliferation was optimized for Compound 8 (KYN-119) to enable a more accurate assessment of its low IC50 value. In this protocol, 18 dosages (2 fold dilutions ranging from 0.000038146 to 5 μM) were applied to cells seeded in 96-well plates, and Luminescence was measured after 1, 3 and 5 days upon treatments.

[2] = test system: Liposarcoma 94T778; experiment: CellTiter Glo cell viability assay; type: cell-based, human; details: for IC50: Homo sapiens, 72 h, 3 Days of treatment, 18 2-fold dilutions 5-0.00003 μM
Summary of the method: (§4)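 Cells seeded at 1.7*10^3/well in quadruplicate; compounds at 18 two-fold dilutions from 5 μM (0.000038146-5 μM), or at 1, 2, 5, 10 and 20 μM. CellTiter Glo luminescence read on days 1, 3 and 5 after treatment. IC50 by nonlinear regression of luminescence versus log dose.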

[3] = test system: Rhabomyosarcoma Hs 729; experiment: CellTiter Glo cell viability assay; type: cell-based, human; details: for IC50: Homo sapiens, 72 h, 3 Days of treatment, 18 2-fold dilutions 5-0.00003 μM
Summary of the method: as §4

[4] = test system: Leiomyosarcoma SK-LMS-1; experiment: CellTiter Glo cell viability assay; type: cell-based, human; details: for IC50: Homo sapiens, SK-LMS-1, 72 h, 3 Days of treatment, 18 2-fold dilutions 5-0.00003 μM
Summary of the method: as §4

[5] = test system: Lung NCI-H596; experiment: CellTiter Glo cell viability assay; type: cell-based, human; details: for IC50: Homo sapiens, NCI-H596, 72 h, 3 Days of treatment, 18 2-fold dilutions 5-0.00003 μM
Summary of the method: as §4

[6] = test system: Tongue SCC-9; experiment: CellTiter Glo cell viability assay; type: cell-based, human; details: for IC50: Homo sapiens, SCC-9, 72 h, 3 Days of treatment, 18 2-fold dilutions 5-0.00003 μM
Summary of the method: as §4

[7] = test system: Liver JHH-5; experiment: CellTiter Glo cell viability assay; type: cell-based; details: Homo sapiens, 72 h; 3 Days of treatment; 18 2-fold dilutions 5-0.00003 μM
Description: as §1, §2, §3

[8] = test system: Pancreatic AsPC-1n; experiment: CellTiter Glo cell viability assay; type: cell-based; details: Homo sapiens, 72 h; 3 Days of treatment; 18 2-fold dilutions 5-0.00003 μM
Description: as §1, §2, §3

[9] = test system: Bladder HT_1376; experiment: CellTiter Glo cell viability assay; type: cell-based; details: Homo sapiens, HT-1376, 72 h; 3 Days of treatment; 18 2-fold dilutions 5-0.00003 μM
Description: as §1, §2, §3

[10] = test system: Rhabomyosarcoma SJCRH30; experiment: CellTiter Glo cell viability assay; type: cell-based, human
Summary of the method: as §4

[11] = test system: BALB/c mice; experiment: Effect of oral administration on animal wellbeing in B16F10 xenografted mice; type: in vivo; details: 900 mg/kg oral daily for 15 days
Description: (§5) • Observe and assess the effect of oral administration of 27 on animal wellbeing. • Quantify levels of 27 in tissues (plasma, tumor, liver, spleen and brain) to assess the compound bioaccumulation and distribution.
(§6) B16F10 cells (25×10^5 cells/mouse) were injected subcutaneously into the right flank of female BALB/c mice aged 7-8 weeks. Mice (n=10) were divided into 2 groups and given daily oral suspension of 27 (treated group), or vehicle (control group) for 15 days. The treated group was orally given a suspension of 27 at 900 mg/kg. The control group was given the vehicle suspension (SEDDS). Measurements performed on days 0, 9 and 15 only. Tissues (plasma, tumor, liver, spleen and brain) were harvested within 3 hours of final treatment. Biopsies of tumor tissues for histopathology were obtained subsequently.

[12] = test system: melanoma B16F10 xenografted in BALB/c mice; experiment: B16F10 xenografted mice: tumor volume and histopathology; type: in vivo
Description: as §6
Tissue samples from the tumors of both treated and control mice were fixed with formalin. Histopathological examination of these tumor samples was performed by Lore Laboratory, CA, USA.

[13] = test system: BalbC mice; experiment: Maximum Tolerable Dose - LD/50 single dose oral administration; type: in vivo; details: single oral dose 2000 mg/kg in SEDDS vehicle, 5 BalbC mice, observation 5 days
Description: To ascertain initial information regarding the toxicity and tolerability of compound 27.
• A single administration of orally formulated maximum dose, 2000 mg/kg was given to 5 BalbC mice. Observation was carried out for 5 days.
• Compound 27 was weighed out and diluted into the same SEDDS vehicle used for S1. The SEDDS vehicle is composed of the following components: • Labrasol (30%) • PEG-400 (20%) • Kolliphore RH-40 (30%) • Labrafil (20%) • The concentration of 27 in SEDDS was 200 mg/mL which would translate to a 2000 mg/kg oral dose for a 20 g mouse administered 200 ul. Oral administration was administered to 5 mice and the animals were carefully observed for signs of toxicity in the first hour then sporadically over 5 days.

[14] = Concentration of compound 27 in tissues (LC/MS/MS) of B16F10 xenografted mice; type: in vivo
Description: as §5, §6
Concentrations of 27 in different tissues were determined using LC/MS/MS spectrometry.

[15] = IC50 of 1 [KYN-001] vs 8 [KYN-119], 3 Days
[16] = 900 mg/kg oral daily, individual treated mice
[17] = individual treated mice, 900 mg/kg oral daily for 15 days in SEDDS, harvested within 3 hours of final treatment, LC/MS/MS, 900 mg/kg

## COc1cc(/C=C/c2cc(O)cc(OC)c2CC=C(C)C)ccc1O [Compound 1, (E)-3-(4-hydroxy-3-methoxystyryl)-5-methoxy-4-(3-methylbut-2-en-1-yl)phenol]
[1]; 3 Days of treatment, 18 2-fold dilutions 5-0.00003 μM, read-out: Average IC50
  IC50: 93.7 nM
[1]; Day 3 upon drug treatment, 10 dosages 0.0001-20 μM, read-out: IC50
  IC50: 93.7 nM
[2]
  IC50: 84.5 nM
[3]
  IC50: 383 nM
[4]
  IC50: 65.9 nM
[5]
  IC50: 303 nM
[6]
  IC50: 181 nM

## CCOc1cc(O)cc(/C=C/c2ccc(O)c(OC)c2)c1CC=C(C)C [Compound 8, (E)-3-Ethoxy-5-(4-hydroxy-3-methoxystyryl)-4-(3-methylbut-2-en-1-yl)phenol]
[7]
  IC50: 4370 nM
[8]
  IC50: 2000 nM
[9]
  IC50: 610 nM
[10]; Homo sapiens, 72 h, 3 Days of treatment, 18 2-fold dilutions 5-0.00003 μM
  IC50: 43.4 nM
[10]; [15]
  Fold IC50: 1.9
[2]
  IC50: 25.7 nM
[2]; [15]
  Fold IC50: 3.3
[3]
  IC50: 64.9 nM
[3]; [15]
  Fold IC50: 5.9
[4]
  IC50: 17.5 nM
[4]; [15]
  Fold IC50: 3.8
[5]
  IC50: 115 nM
[5]; [15]
  Fold IC50: 2.6
[6]
  IC50: 75.5 nM
[6]; [15]
  Fold IC50: 2.4

## COc1cc(/C=C/c2cc(O)cc(OC)c2CC=C(C)C)ccc1NC=O [Compound 27, (E)-N-(4-(5-hydroxy-3-methoxy-2-(3-methylbut-2-en-1-yl)styryl)-2-methoxyphenyl)formamide]
[11]
  Signs of toxic effect: no signs of toxic effect; also recorded: low toxicity when given orally
[12]; 900 mg/kg oral daily for 15 days
  Histochemical analysis of tumor samples, in words: tumors were subsequently diminished after day 10; also recorded: lysed and/or underwent necrosis
[12]; [16]
  Tumor volume Day 0: 109.29 mm^3 and 52.18 mm^3 and 58.45 mm^3 and 82.97 mm^3 and 66.82 mm^3
  Tumor volume Day 9: 132.59 mm^3 and 178.68 mm^3 and 37.38 mm^3 and 60.93 mm^3 and 47.3 mm^3
  Tumor volume Day 15: 5.31 mm^3 and 19.93 mm^3 and 35.03 mm^3 and 42.35 mm^3 and 39.44 mm^3
[13]
  Toxicity and tolerability, survival and signs of distress: All five mice survived and showed no immediate signs of distress; also recorded: high degree of oral tolerability
[14]; 900 mg/kg oral daily for 15 days, tissues harvested within 3 hours of final treatment
  Tissue distribution, in words: Low plasma level; also recorded: high tendency to accumulate in the brain
[14]; [17]
  Concentration of compound 27 in tissues: Liver: 12.6 μg/mg and 10.2 μg/mg and 1.0 μg/mg and 0.0 μg/mg (2×)
  Concentration of compound 27 in tissues: Plasma: 0.0 ng/mL (3×) and 8.4 ng/mL and 0.4 ng/mL
  Concentration of compound 27 in tissues: Spleen: 2 μg/mg and 0 μg/mg (4×)
  Concentration of compound 27 in tissues: Tumor: 0 μg/mg (3×) and 11.6 μg/mg
